Data set [1] concerns Ovalbumin-induced systemic edema. Briefly: Ovalbumin-induced systemic edema method (anti-inflammatory action). The format is in vivo. To be noted: Rattus norvegicus, po, rats, 100 mg/kg orally (1 hour prior and simultaneously), with respect to control group. The protocol:
b. Ovalbumin-induced systemic edema method
Rats are administered a simultaneous intraperitoneal injection of 1 ml ovalbumin and 0.5 ml of a 1% Evans Blue solution. The animals of the treated group are additionally administered orally 100 mg/kg of the test derivative, one hour prior to ovalbumin administration and then simultaneously with said ovalbumin administration. The intensity of the phenomenon thus induced is rated according to a scale from 1 to 5, according to the progress of the inflammatory syndrome. The measurements are effected after 2 hours and after 3 hours. Thus are determined the mean intensity of the edema and the percent decrease of the edema reaction with respect to the control group.

Data set [2] can be described thus: Acute intravenous toxicity (LD50, method according to MILLER and TAINTER). To be noted: mouse, in vivo, Swiss mice, read-out: LD50 /24hrs/kg of the animal.
The test system of data set [3] is mechanical stimulation (pressure forceps at the base of the tail). The data set can be described thus: Antalgic action, mechanical stimulation method according to Haffner. The format is in vivo. Conditions: mouse, 100 mg/kg oral. The protocol: This method comprises placing a pressure forceps at the base of the tail of a mouse and recording the number of bites self-inflicted by the animal in its endeavour to remove the forceps. The decrease of the number of bites prior to and subsequently to oral administration of the test compound at a dosage of 100 mg/kg provides a measure of the antalgic activity of the derivatives of this invention.

Data set [4] concerns carrageenin-induced edema. Briefly: Localized carrageenin-induced edema method (anti-inflammatory action). Type of data set: in vivo. Conditions: Rattus norvegicus, po, rats, 100 mg/kg orally (1 hour prior, simultaneously, 1 hour and 2.5 hours after). The protocol:
a. Localized carrageenin-induced edema method.
0.1 ml of a 1% carrageenin solution is injected at time 0 in the metatarsal flexor muscles of the right hind limb of rats. The animals of the treated group are administered orally, additionally, 100 mg/kg of the test derivative, respectively 1 hour prior to and then simultaneously with the phlogogenic agent, and then 1 hour and 2.5 hours thereafter. The determinations effected with a ROCH micrometer at times 0, 1 hour, 2 hrs, 3 hrs and 5 hrs after carrageenin administration make it possible to determine, as a function of time, the percent anti-inflammatory activity.

Setting [5] is: after 2 hrs, read-out: Percent decrease of the edema reaction after 2 hrs.
Where [6] appears, read: after 3 hrs, read-out: Percent decrease of the edema reaction after 3 hrs.
The mark [7] stands for this setting: 0.5 h, after 30 min., read-out: mean percent antalgia after 30 min.
Where [8] appears, read: after 1 hr, read-out: mean percent antalgia after 1 hr.
Where [9] appears, read: after 2 hrs, read-out: mean percent antalgia after 2 hrs.
[10] abbreviates: after 3 hrs, read-out: mean percent antalgia after 3 hrs.
Setting [11] is: after 1 hour, read-out: Percent anti-inflammatory activity after 1 hour.
Where [12] appears, read: after 2 hours, read-out: Percent anti-inflammatory activity after 2 hours.
Where [13] appears, read: after 5 hours, read-out: Percent anti-inflammatory activity after 5 hours.

Molecules are shown by their SMILES. Like-named read-outs stand apart in the source and are kept apart here.

Take `COC1CNCc2ccsc21` (stereo not shown) [Derivative 1, 7-Methoxy-4,5,6,7-tetrahydro-thieno[3,2-c]-pyridine]: the inhibition in vivo at 100 mg/kg in data set [1] (setting [5]) was determined as 51%; in data set [1] (setting [6]), 60%; in data set [3] (setting [7]), 75%; in data set [3] (setting [8]), 63%; in data set [3] (setting [9]), 59%; in data set [3] (setting [10]), 51%. For the same compound, the inhibition in vivo at 100 mg/kg in data set [4] (setting [11]) worked out at 35%; in data set [4] (setting [12]), 41%; in data set [4] (setting [13]), 50%. Also, in data set [2], the LD50 at 24 h was determined as 262 mg/kg.
Consider `CCOC1CNCc2ccsc21` (stereo not shown) [Derivative 2, 7-Ethoxy-4,5,6,7-tetrahydro-thieno[3,2-c]-pyridine], for which the inhibition in vivo at 100 mg/kg in data set [1] (setting [5]) worked out at 48%; in data set [1] (setting [6]), 59%; in data set [3] (setting [7]) it was 71%; in data set [3] (setting [8]), 66%; in data set [3] (setting [9]) it was 62%; in data set [3] (setting [10]), 59%. For the same compound, the inhibition in vivo at 100 mg/kg in data set [4] (setting [11]) amounted to 36%; in data set [4] (setting [12]), 44%; in data set [4] (setting [13]) it was 52%. Moreover, in data set [2], the LD50 at 24 h is 145 mg/kg.
Take `CC(C)COC1CNCc2ccsc21` (stereo not shown) [Derivative 3, 7-Isobutoxy-4,5,6,7-tetrahydro-thieno[3,2-c]-pyridine]: the inhibition in vivo at 100 mg/kg in data set [1] (setting [5]) was found to be 51%; in data set [1] (setting [6]) it was 63%; in data set [3] (setting [7]), 68%; in data set [3] (setting [8]), 60%; in data set [3] (setting [9]), 55%; in data set [3] (setting [10]), 48%. Moreover, the inhibition in vivo at 100 mg/kg in data set [4] (setting [11]) stood at 39%; in data set [4] (setting [12]), 48%; in data set [4] (setting [13]) it was 58%. For the same compound, in data set [2], the LD50 at 24 h worked out at 180 mg/kg.
With `c1ccc(COC2CNCc3ccsc32)cc1` (stereo not shown) [Derivative 4, 7-Benzyloxy-4,5,6,7-tetrahydro-thieno[3,2-c]-pyridine], the inhibition in vivo at 100 mg/kg in data set [1] (setting [5]) was 53%; in data set [1] (setting [6]), 64%; in data set [3] (setting [7]) it was 75%; in data set [3] (setting [8]), 69%; in data set [3] (setting [9]), 66%; in data set [3] (setting [10]), 57%. For the same compound, the results for the inhibition in vivo at 100 mg/kg in data set [4] (setting [11]), in data set [4] (setting [12]) and in data set [4] (setting [13]) were 42%, 50% and 60%, respectively. For the same compound, the LD50 at 24 h in data set [2] was 95 mg/kg.
On to `COC1(C)CNCc2ccsc21` (stereo not shown) [Derivative 5, 7-Methoxy-7-methyl-4,5,6,7-tetrahydro-thieno[3,2-c]-pyridine], for which the inhibition in vivo at 100 mg/kg came out at 49% in data set [1] (setting [5]); 60% in data set [1] (setting [6]); 67% in data set [3] (setting [7]); 61% in data set [3] (setting [8]); 55% in data set [3] (setting [9]); 46% in data set [3] (setting [10]). The results for the inhibition in vivo at 100 mg/kg in data set [4] (setting [11]), in data set [4] (setting [12]) and in data set [4] (setting [13]) were 39%, 49% and 57%, respectively. The LD50 at 24 h in data set [2] was 138 mg/kg.
Regarding `CCOC1(C)CNCc2ccsc21` (stereo not shown) [Derivative 6, 7-Ethoxy-7-methyl-4,5,6,7-tetrahydro-thieno[3,2-c]-pyridine], the inhibition in vivo at 100 mg/kg in data set [1] (setting [5]) amounted to 44%; in data set [1] (setting [6]), 58%; in data set [3] (setting [7]), 66%; in data set [3] (setting [8]), 60%; in data set [3] (setting [9]) it was 55%; in data set [3] (setting [10]), 48%. In addition, the results for the inhibition in vivo at 100 mg/kg in data set [4] (setting [11]), in data set [4] (setting [12]) and in data set [4] (setting [13]) were 40%, 49% and 61%, respectively. In data set [2], the LD50 at 24 h was determined as 224 mg/kg.
In the case of `COC1c2sccc2CNC1C` (stereo not shown) [Derivative 7, 7-Methoxy-6-methyl-4,5,6,7-tetrahydro-thieno[3,2-c]-pyridine], the inhibition in vivo at 100 mg/kg in data set [1] (setting [5]) is 47%; in data set [1] (setting [6]), 58%; in data set [3] (setting [7]) it was 70%; in data set [3] (setting [8]) it was 65%; in data set [3] (setting [9]) it was 61%; in data set [3] (setting [10]), 53%. The values for the inhibition in vivo at 100 mg/kg in data set [4] (setting [11]), in data set [4] (setting [12]) and in data set [4] (setting [13]) were 36%, 48% and 62%, respectively. In data set [2], the LD50 at 24 h was found to be 210 mg/kg.
With `CCOC1c2sccc2CNC1C` (stereo not shown) [Derivative 8, 7-Ethoxy-6-methyl-4,5,6,7-tetrahydro-thieno[3,2-c]-pyridine], the inhibition in vivo at 100 mg/kg in data set [1] (setting [5]) is 44%; in data set [1] (setting [6]), 56%; in data set [3] (setting [7]), 71%; in data set [3] (setting [8]), 65%; in data set [3] (setting [9]), 59%; in data set [3] (setting [10]), 50%. For the same compound, the values for the inhibition in vivo at 100 mg/kg in data set [4] (setting [11]), in data set [4] (setting [12]) and in data set [4] (setting [13]) were 38%, 53% and 61%, respectively. Also, in data set [2], the LD50 at 24 h came out at 129 mg/kg.
For the compound `COC1(C)c2sccc2CNC1C` (stereo not shown) [Derivative 9, 6,7-Dimethyl-7-methoxy-4,5,6,7-tetrahydro-thieno[3,2-c]-pyridine], the inhibition in vivo at 100 mg/kg was found to be 50% in data set [1] (setting [5]); 63% in data set [1] (setting [6]); 68% in data set [3] (setting [7]); 63% in data set [3] (setting [8]); 56% in data set [3] (setting [9]); 49% in data set [3] (setting [10]). The inhibition in vivo at 100 mg/kg in data set [4] (setting [11]) was determined as 44%; in data set [4] (setting [12]) it was 52%; in data set [4] (setting [13]), 62%. For the same compound, in data set [2], the LD50 at 24 h is 175 mg/kg.
Regarding `COC1c2sccc2CNC1c1ccccc1` (stereo not shown) [Derivative 10, 7-Methoxy-6-phenyl-4,5,6,7-tetrahydro-thieno[3,2-c]-pyridine], the inhibition in vivo at 100 mg/kg amounted to 48% in data set [1] (setting [5]); 57% in data set [1] (setting [6]); 73% in data set [3] (setting [7]); 66% in data set [3] (setting [8]); 60% in data set [3] (setting [9]); 53% in data set [3] (setting [10]). The results for the inhibition in vivo at 100 mg/kg in data set [4] (setting [11]), in data set [4] (setting [12]) and in data set [4] (setting [13]) were 37%, 50% and 56%, respectively. The LD50 at 24 h in data set [2] came out at 195 mg/kg.

Values taken from US4065460A, “4,5,6,7-Tetrahydro-thieno[3,2-c]-pyridine derivatives and process for their preparation” (Parcor, priority 1975, dated 1977).
